Activity calls are given as the source filed them.
How the values were obtained:
[1] = molecular target: T1, Cytochrome P450 1A2 (Homo sapiens, UniProt P05177);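 further: PubChem cytochrome P450 panel assay, CYP1A2 panel member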
T1 sequence (P05177 whole entry): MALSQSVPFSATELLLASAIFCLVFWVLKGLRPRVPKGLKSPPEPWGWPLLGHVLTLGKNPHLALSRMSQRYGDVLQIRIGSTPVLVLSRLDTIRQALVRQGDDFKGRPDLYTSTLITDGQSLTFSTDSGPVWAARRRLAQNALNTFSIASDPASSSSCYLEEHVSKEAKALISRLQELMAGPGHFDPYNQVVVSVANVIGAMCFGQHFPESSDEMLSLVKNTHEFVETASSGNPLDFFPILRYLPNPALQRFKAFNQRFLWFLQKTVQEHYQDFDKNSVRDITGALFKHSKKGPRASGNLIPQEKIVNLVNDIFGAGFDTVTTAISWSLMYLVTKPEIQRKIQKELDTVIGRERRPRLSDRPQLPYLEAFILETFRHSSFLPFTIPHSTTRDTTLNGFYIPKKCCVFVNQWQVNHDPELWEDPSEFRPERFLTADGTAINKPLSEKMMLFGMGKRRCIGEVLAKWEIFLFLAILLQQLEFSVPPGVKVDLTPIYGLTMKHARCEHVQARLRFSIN

[2] = molecular target: Cytochrome P450 2C9 (Homo sapiens, UniProt P11712)
[3] = molecular target: T2, Heat shock factor protein 1 (Mus musculus, UniProt P38532); test: decrease of HSF1-responsive luciferase luminescence – cell-based, NIH3T3, dose retest, confirmation (AID 2382); type: functional;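 further: NIH3T3 fibroblasts with HSF1-driven luciferase reporter stressed by proteasome inhibitor MG132; luminescence from HSF1-driven luciferase expression after 8 hours of MG132 stress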
T2 sequence (P38532 whole entry): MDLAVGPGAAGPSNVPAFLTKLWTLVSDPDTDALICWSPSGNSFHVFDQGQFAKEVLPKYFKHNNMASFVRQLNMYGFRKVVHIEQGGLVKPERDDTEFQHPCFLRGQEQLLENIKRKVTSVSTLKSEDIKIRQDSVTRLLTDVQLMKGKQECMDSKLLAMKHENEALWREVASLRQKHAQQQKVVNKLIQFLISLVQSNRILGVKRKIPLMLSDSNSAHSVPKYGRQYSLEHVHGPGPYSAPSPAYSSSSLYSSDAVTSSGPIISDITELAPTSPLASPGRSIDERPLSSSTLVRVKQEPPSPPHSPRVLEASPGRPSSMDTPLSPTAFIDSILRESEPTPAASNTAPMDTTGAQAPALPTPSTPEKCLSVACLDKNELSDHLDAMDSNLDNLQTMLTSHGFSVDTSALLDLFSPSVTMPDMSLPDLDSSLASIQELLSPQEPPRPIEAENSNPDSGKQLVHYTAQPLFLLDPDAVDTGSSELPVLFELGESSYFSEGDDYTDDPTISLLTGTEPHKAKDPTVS

[4] = molecular target: T3, RNA-binding protein pos-1 (Caenorhabditis elegans, UniProt G5EF15); test: disruptors of C. elegans POS-1 RNA interaction – biochemical, fluorescence polarization, dose response (AID 1964);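 further: purified POS-1 fused to maltose binding protein made in E. coli; potency of compounds blocking POS-1 binding to fluorescent RNA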
T3 sequence (G5EF15 whole entry): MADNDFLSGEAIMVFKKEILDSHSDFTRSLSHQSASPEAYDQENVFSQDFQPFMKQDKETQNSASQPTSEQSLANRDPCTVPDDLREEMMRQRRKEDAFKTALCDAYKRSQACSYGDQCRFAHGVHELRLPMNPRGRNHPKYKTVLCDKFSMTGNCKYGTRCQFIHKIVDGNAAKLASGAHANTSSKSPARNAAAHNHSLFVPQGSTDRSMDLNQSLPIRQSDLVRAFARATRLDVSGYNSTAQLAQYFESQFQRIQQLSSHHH

[5] = molecular target: T4, Zinc finger protein mex-5 (Caenorhabditis elegans, UniProt Q9XUB2); test: potency of MEX-5 RNA-binding blockers – biochemical, C. elegans, fluorescence polarization, dose response (AID 1960)
T4 sequence (Q9XUB2 whole entry): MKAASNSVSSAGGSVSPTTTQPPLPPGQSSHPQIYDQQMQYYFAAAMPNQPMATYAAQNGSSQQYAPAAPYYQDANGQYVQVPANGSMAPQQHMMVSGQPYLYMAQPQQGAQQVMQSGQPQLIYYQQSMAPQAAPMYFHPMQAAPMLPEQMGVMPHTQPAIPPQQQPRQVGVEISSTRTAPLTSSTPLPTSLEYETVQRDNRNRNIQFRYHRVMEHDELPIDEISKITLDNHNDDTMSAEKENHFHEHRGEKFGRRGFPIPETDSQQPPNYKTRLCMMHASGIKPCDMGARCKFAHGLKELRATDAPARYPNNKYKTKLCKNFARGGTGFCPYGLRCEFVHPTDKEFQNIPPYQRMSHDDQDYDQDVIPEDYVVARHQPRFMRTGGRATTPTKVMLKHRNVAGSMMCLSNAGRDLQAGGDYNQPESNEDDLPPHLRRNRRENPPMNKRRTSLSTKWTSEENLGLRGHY

[6] = test system: INS1; test: INS-1E survival protection against cytokine death – cell-based, luminescence, retest, dose response (AID 449756); type: functional; conditions: Rattus norvegicus;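 further: cell death triggered by IL-1 beta plus TNF-alpha plus IFN-gamma mixture; protective hits raise ATP signal compared with cytokine alone wells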
[7] = molecular target: Cytochrome P450 2C19 (Homo sapiens, UniProt P33261); test: Cytochrome panel assay with activity outcomes. Panel member name: p450-cyp2c19 Compounds with AC50 equal or less than 10 uM are considered active; type: functional
[8] = molecular target: T5, Corticotropin-releasing factor receptor 2/Corticotropin-releasing factor-binding protein (Homo sapiens, UniProt P24387+Q13324); test: activators of CRF receptor 2 with binding protein – uHTS hits, confirmation (AID 602473); type: functional; conditions: read-out: EC50_Mean
T5 sequence (Q13324 whole entry): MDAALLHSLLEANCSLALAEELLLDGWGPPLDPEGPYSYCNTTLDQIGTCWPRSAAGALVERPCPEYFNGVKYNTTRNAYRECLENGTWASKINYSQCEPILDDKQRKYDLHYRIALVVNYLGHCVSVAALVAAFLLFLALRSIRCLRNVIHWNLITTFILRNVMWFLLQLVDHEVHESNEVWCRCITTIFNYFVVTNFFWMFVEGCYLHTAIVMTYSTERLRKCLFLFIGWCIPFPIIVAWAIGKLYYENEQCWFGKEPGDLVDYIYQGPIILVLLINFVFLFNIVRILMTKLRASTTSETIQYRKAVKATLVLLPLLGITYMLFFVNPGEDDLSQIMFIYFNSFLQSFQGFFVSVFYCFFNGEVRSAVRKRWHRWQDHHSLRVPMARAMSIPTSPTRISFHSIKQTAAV
T5 sequence (P24387 whole entry): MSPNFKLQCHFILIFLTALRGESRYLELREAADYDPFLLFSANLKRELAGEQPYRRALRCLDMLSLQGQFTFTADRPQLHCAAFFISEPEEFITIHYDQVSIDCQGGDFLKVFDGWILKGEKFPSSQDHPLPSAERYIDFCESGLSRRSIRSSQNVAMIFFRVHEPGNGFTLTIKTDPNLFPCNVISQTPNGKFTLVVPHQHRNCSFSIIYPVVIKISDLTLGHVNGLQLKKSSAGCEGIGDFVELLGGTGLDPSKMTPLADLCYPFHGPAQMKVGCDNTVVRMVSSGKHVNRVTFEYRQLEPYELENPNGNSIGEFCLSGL

Cytochrome P450 2C19, sequence (P33261 whole entry): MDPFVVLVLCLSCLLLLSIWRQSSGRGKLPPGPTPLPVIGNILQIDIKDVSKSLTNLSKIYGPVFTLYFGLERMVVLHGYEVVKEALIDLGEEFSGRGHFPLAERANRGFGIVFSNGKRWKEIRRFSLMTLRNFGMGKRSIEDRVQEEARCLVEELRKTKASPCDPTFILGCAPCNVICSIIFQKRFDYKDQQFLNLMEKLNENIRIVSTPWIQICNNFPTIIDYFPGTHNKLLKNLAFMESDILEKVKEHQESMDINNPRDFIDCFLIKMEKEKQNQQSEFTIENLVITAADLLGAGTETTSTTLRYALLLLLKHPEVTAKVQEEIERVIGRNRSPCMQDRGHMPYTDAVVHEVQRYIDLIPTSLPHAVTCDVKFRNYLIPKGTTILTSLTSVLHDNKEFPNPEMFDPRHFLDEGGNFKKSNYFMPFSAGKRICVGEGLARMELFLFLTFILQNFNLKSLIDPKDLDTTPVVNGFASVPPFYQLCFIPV
Cytochrome P450 2C9, sequence (P11712 whole entry): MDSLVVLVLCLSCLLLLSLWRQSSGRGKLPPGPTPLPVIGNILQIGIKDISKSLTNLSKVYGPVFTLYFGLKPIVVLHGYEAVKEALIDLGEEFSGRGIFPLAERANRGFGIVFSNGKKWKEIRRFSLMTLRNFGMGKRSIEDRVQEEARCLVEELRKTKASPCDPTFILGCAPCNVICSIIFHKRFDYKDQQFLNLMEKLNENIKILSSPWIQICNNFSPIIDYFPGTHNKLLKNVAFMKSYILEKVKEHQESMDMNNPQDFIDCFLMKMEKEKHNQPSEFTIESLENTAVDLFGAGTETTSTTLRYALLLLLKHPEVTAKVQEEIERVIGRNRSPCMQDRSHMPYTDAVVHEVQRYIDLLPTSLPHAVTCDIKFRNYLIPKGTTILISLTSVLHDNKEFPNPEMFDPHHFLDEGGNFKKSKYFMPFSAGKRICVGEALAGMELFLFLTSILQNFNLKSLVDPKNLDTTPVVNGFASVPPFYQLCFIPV

In the case of CCNc1nnc(-c2ccncc2)s1, the AC50 [1] is reported as 15.8 µM (inconclusive) and the AC50 [2] is reported as 17.8 µM (inconclusive).
CC(C)(NC(=O)c1cc(Cl)c2ccccc2c1O)C(=O)O was tested, and the EC50 [3] was 14.1 µM (active).
With COc1ccccc1NCC(=O)N/N=C/c1c(O)ccc2ccccc12 the EC50 [4] was > 300 µM (not active), the EC50 [5] was > 150 µM (not active) and the AC50 [6] was 4.94 µM (active).
With O=C(NC1CCCCC1)c1ccc(COCC(F)(F)F)o1 the AC50 [2] was 15.8 µM (inconclusive).
In the case of O=C(O)CSc1nc(-c2ccccc2)nc2c1oc1ccccc12, the EC50 [3] is reported as > 195 µM (not active).
For Cc1cc(S(=O)(=O)N2CCN=C2c2ccccc2)c(C)cc1Cl, the EC50 [3] was > 195 µM (not active).
With CCCOc1ccc(NC(N)=O)cc1OCCC the EC50 [3] was > 195 µM (not active).
CC(NC(=O)CSc1nc(=O)cc(N)n1CCc1ccccc1)c1ccccc1 (stereo not given) was tested, and the AC50 ([7]; read-out: AC50) was 14.1 µM (inconclusive).
For CN1C(=O)/C(=C/c2ccc3c(c2)OCO3)N=C1c1ccccc1, the EC50 [4] was > 300 µM (not active) and the EC50 [5] was 75.1 µM (inconclusive).
In the case of COC(=O)c1cccc(C(=O)Nc2ccc(C)cc2)n1, the AC50 [2] is reported as 6.31 µM (inconclusive).
In the case of O=C1C2CC=C(Cl)CC2C(=O)N1CCc1ccccc1 (stereo not given), the EC50 [4] is reported as 29.4 µM (active) and the EC50 [5] is reported as 20.6 µM (active).
In the case of S=C(Nc1ccccc1)N1CCCCC1, the AC50 ([7]; read-out: AC50) is reported as 17.8 µM (inconclusive) and the AC50 [1] is reported as 22.4 µM (inconclusive).
With CCOC(=O)C1=NOC2C3CC(C12)C1C(=O)N(CCc2ccc(OC)c(OC)c2)C(=O)C31 (stereo not given) the EC50 [3] was > 195 µM (not active).
In the case of CCC1CC2CC(NC(C)=O)C1C2 (stereo not given), the AC50 ([7]; read-out: AC50) is reported as 20 µM (inconclusive) and the AC50 [2] is reported as 7.08 µM (inconclusive).
For CC(=N/O)/C(C)=N\NC(=O)c1ccccn1, the EC50 [3] was > 195 µM (not active).
NCc1ccccc1.O=C(O)NCc1ccccc1 was tested, and the AC50 ([7]; read-out: AC50) was 2.51 µM (inconclusive) and the AC50 [2] was 3.98 µM (inconclusive).
CCN1CCCC1CNC(=O)CSCc1nc(-c2ccccc2C)oc1C (stereo not given) was tested, and the AC50 ([7]; read-out: AC50) was 28.2 µM (inconclusive) and the AC50 [1] was 39.8 µM (inconclusive).
CCN(CC)C(=O)CSc1nnc(-c2cc3ccccc3cc2O)n1CC was tested, and the AC50 ([7]; read-out: AC50) was 15.8 µM (inconclusive).
With Cc1cc(C)nc(NC(=O)COc2cc(Cl)cc(Cl)c2)n1 the EC50 [3] was 71.9 µM (active).
For COc1cccc(-c2nnc3sc(-c4ccc(C)cc4)nn23)c1, the AC50 ([7]; read-out: AC50) was 6.31 µM (inconclusive).
Cc1cccc(N2C(=O)CS/C2=N\NC(=O)c2ccc(Br)cc2)c1C was tested, and the EC50 [3] was > 195 µM (not active).
For O=C1CCC(c2ccccc2)(c2ccccc2)CC1, the AC50 [2] was 6.31 µM (inconclusive).
With CC1(c2ccc(Cl)cc2)NC(=O)N(CC(=O)N2CCc3ccccc32)C1=O (stereo not given) the EC50 [8] was 14.1 µM (active).
For CCN1CCN(c2nc(C)c3c(n2)CCCC3=O)CC1, the AC50 [7] was “inconclusive”.
With COc1cc(/N=C/c2c(O)oc3ccccc3c2=O)c(OC)cc1Cl the EC50 [4] was > 300 µM (inconclusive), the EC50 [5] was > 300 µM (inconclusive) and the EC50 [8] was > 53 µM (inactive).
Cc1cc([N+](=O)[O-])nn1CC(=O)NNC(=S)Nc1ccc([N+](=O)[O-])cc1 was tested, and the EC50 [4] was 28.3 µM (active) and the EC50 [5] was 5.47 µM (active).
In the case of CCOc1ccc(-n2c(N)c(C(=O)NCc3cccnc3)sc2=S)cc1, the AC50 ([7]; read-out: AC50) is reported as 8.91 µM (inconclusive) and the AC50 [2] is reported as 3.55 µM (inconclusive).
With O=c1oc2c(Cl)cc(Cl)cc2cc1-c1nnc(Nc2ccccc2F)s1 the AC50 [1] was 15.8 µM (inconclusive).
In the case of CC(=O)OCC(=O)[C@@]1(O)[C@H](C)C[C@@H]2[C@H]3CCC4=CC(=O)C=C[C@]4(C)[C@]3(F)[C@@H](O)C[C@@]21C, the AC50 [2] is reported as 6.31 µM (inconclusive).
For COCCn1c(=O)c(C)nc2cncnc21, the AC50 ([7]; read-out: AC50) was 39.8 µM (inconclusive), the AC50 [1] was 15.8 µM (inconclusive) and the AC50 [2] was 31.6 µM (inconclusive).
With COC(=O)C1=CN(c2ccc(F)c(F)c2)C=C(C(=O)OC)C1c1ccc([N+](=O)[O-])cc1 the EC50 [3] was > 195 µM (not active).
COc1ccc(-n2cnc3sc(-c4ccccc4)cc3c2=O)cc1 was tested, and the AC50 [1] was 3.55 µM (inconclusive).
O=C(/C=C\c1ccc2c(c1)OCO2)c1ccc(F)cc1 was tested, and the AC50 [2] was 1.58 µM (inconclusive).
For Cc1ccc(NC(=O)CSc2nccc(=O)[nH]2)c(S(=O)(=O)N2CCOCC2)c1, the EC50 [4] was > 300 µM (not active) and the EC50 [5] was > 300 µM (not active).
In the case of CC(=O)Nc1ccccc1Sc1ccc2c3c(cccc13)C(=O)N(c1ccc(C)cc1)C2=O, the EC50 [8] is reported as > 53 µM (inactive).
In the case of CCNc1ncc2nc(-c3ccc(F)cc3)c(=O)n(-c3ccccc3)c2n1, the AC50 [1] is reported as 0.398 µM (inconclusive).
In the case of O=C(O)COc1ccc(/C=N/NC(=O)c2ccccc2Br)cc1, the EC50 [3] is reported as > 195 µM (not active).
CCOC(=O)c1ccc(NC(=O)Oc2ccccc2)cc1 was tested, and the EC50 [3] was > 195 µM (not active).
O=C(CC1Nc2ccccc2NC1=O)c1ccccc1 (stereo not given) was tested, and the EC50 [4] was 30.6 µM (active) and the EC50 [5] was 103 µM (active).
In the case of COc1ccccc1C(c1nnnn1C(C)(C)C)N1CCN(Cc2ccncc2)CC1 (stereo not given), the AC50 [1] is reported as 25.1 µM (inconclusive).
With O=C(CSc1nnc(CNc2ccccc2)o1)N1CCCc2ccccc21 the AC50 [2] was 15.8 µM (inconclusive).
For CCCCNC(=O)CCC(=O)Nc1ccc2nc(N3CCOCC3)cc(C)c2c1, the AC50 [2] was 17.8 µM (inconclusive).
O=C(O)[C@H]1[C@H]2CN[C@H](C(=O)O)[C@H]21 was tested, and the AC50 ([7]; read-out: AC50) was 31.6 µM (inconclusive) and the AC50 [1] was 31.6 µM (inconclusive).
For CCOC(=O)N1CCN(C(S)=Nc2ccc(C)cc2C)CC1, the EC50 [3] was > 195 µM (not active).
In the case of COC(=O)c1cc(Br)c(=O)n(CCc2ccc(O)cc2)c1, the AC50 [1] is reported as 10 µM (inconclusive).
With Cc1cc(/C=C2\SC(=O)N(C)C2=O)c(C)n1-c1cccc(C(=O)O)c1 the EC50 [4] was > 300 µM (not active) and the EC50 [5] was > 300 µM (not active).

From ChEMBL document CHEMBL1201862, “PubChem BioAssay data set” (2004)
